Source: paper PMC7692337, “Masked Phenolic-Selenium Conjugates: Potent and Selective Antiproliferative Agents Overcoming P-gp Resistance” (Pharmaceuticals, 2020)
Read-outs that look alike come from different tables or passages of the source.

Legend:
[1] = test system: HeLa (cervix); assay: Antiproliferative activity, NCI protocol; format: cell-based, human
Procedure: (§1) Organochalcogen derivatives prepared herein were evaluated in vitro as potential antiproliferative agents, using a panel of six human tumour cell lines: A549 (non-small cell lung), HBL-100 (breast), HeLa (cervix), SW1573 (non-small cell lung), as drug sensitive lines, T-47D (breast) and WiDr (colon) as drug resistant lines. In addition to precursors 2, 6, 7, 13, 14, 17, 19, ebselen and cisplatin (CDDP) were used as reference drugs. […] In both cases, the NCI protocol, with minor modifications, was followed; selected data, including the selectivity index (S.I.) can be found in Table 3 and full data in Supporting Information (Table S1).
(§2) The in vitro antiproliferative activity was assayed using minor modifications of the protocol of the National Cancer Institute (NCI) of the United States against the six human solid tumor cell and the non-tumor cell lines tested.

[2] = test system: WiDr (colon); assay: Antiproliferative activity, NCI protocol; format: cell-based, human; settings: for GI50: read-out: GI50 WiDr (Colon)
Procedure: as §1, §2

[3] = test system: A549 (non-small cell lung); assay: Antiproliferative activity, NCI protocol; format: cell-based, human
Procedure: as §1, §2

[4] = test system: T-47D (breast); assay: Antiproliferative activity, NCI protocol; format: cell-based, human; settings: for GI50: read-out: GI50 T-47D (Breast)
Procedure: as §1, §2

[5] = test system: HBL-100 (breast); assay: Antiproliferative activity, NCI protocol; format: cell-based, human
Procedure: as §1, §2

[6] = test system: SW1573 (non-small cell lung); assay: Antiproliferative activity, NCI protocol; format: cell-based, human
Procedure: as §1, §2

[7] = Free radical scavenging (DPPH method); settings: 30 min incubation, absorbance at 515 nm, read-out: EC50 antiradical activity (DPPH)
Procedure: (§3) In vitro antioxidant properties of key unprotected phenolic derivatives were analyzed using two different methodologies: free radical scavenging capacity, using the DPPH method (2,2-diphenyl-1-picrylhydrazyl), a HAT (hydrogen atom transfer) procedure, widely-used for both natural and synthetic derivatives, and also the capacity for scavenging H2O2, one of the most common ROS in degenerative diseases, including cancer.
DPPH is a commercially-available stable free radical commonly used for in vitro testing of radical scavenging properties of antioxidants.
Reported methodology was used with minor modifications. To a 60 µM methanolic DPPH solution (1.17 mL), the antioxidant solution (5–7 different solutions, 30 µL) or solvent (control, 30 µL) were added. After 30 min. of incubation in the dark, absorbance was measured at 515 nm, and EC50 values were calculated.

[8] = test system: six human tumour cell lines (A549, HBL-100, HeLa, SW1573, T-47D, WiDr); assay: Antiproliferative activity, panel of six human tumour cell lines; format: cell-based; settings: summary over the tested tumour cell lines, highest tested concentration 100 µM; for GI50: Homo sapiens, read-out: GI50 over the tumour cell lines (range, bound or words)
Procedure: as §1, §2

[9] = H2O2 scavenging (phenol red / horseradish peroxidase); settings: At 50 µM
Procedure: as §3
Herein, following Bahorun’s methodology, in vitro levels of H2O2 were measured in an indirect fashion, by registering the H2O2-mediated oxidation of phenol red in the presence of horseradish peroxidase, to give a chromophore with a maximum absorption at 610 nm. Accordingly, in the presence of an antioxidant agent, there is an inverse correlation between the observed absorbance, and the scavenging properties. Table 2 depicts the H2O2-scavenging properties of compounds prepared herein, and tested at a final 50 µM concentration.
Reported methodology was used with minor modifications.

[10] = P-glycoprotein assay, line overexpressing P-gp; format: cell-based, human; settings: human, 48 h exposure
Procedure: (§4) This assay allows prediction of whether a certain chemotherapeutic agent could develop chemoresistance when behaving as a P-gp substrate, one of the most common efllux-pumps used for the extrusion of cell xenobiotics. For that purpose, a cell line-based assay was used, in particular the lung cancer cell line in its wild type (SW1573), and its variant overexpressing P-gp (Sw1573/Pgp). Moreover, compounds were tested in the presence and in the absence of verapamil, which is known to inhibit P-gp. Chemotherapeutic agents paclitaxel (PTX) and vinblastine (VB) are used herein as reference compounds. In this assay, the resistance factor (Rf) for a certain compound is defined as the ratio of GI50 in the cell line overexpressing P-gp and the wild one (Table 4), high values of Rf denoting that the compound behaves as a P-gp substrate, and thus, chemoresistance through this mechanism will probably take place.

[11] = test system: SW1573/Pgp; assay: P-glycoprotein assay, line overexpressing P-gp; format: cell-based, human; settings: ratio between GI50 values in SW1573/PGP and SW1573 cells; for Rf w Verapamil: with verapamil; for Rf w/o Verapamil: without verapamil
Procedure: as §4

[12] = test system: BJ-hTert (fibroblasts); assay: Antiproliferative activity on non-tumour cells, NCI protocol; format: cell-based, human; settings: non-tumour cell line; for GI50: read-out: GI50 BJ-hTert (Fibroblasts)
Procedure: as §1, §2

[13] = test system: SW1573; assay: P-glycoprotein assay, wild type line; format: cell-based; settings: Homo sapiens, 48 h exposure
Procedure: as §4

[14] = Homo sapiens, HeLa; read-out: GI50 HeLa (Cervix)
[15] = Homo sapiens, WiDr, drug resistant line
[16] = Homo sapiens, A549; read-out: GI50 A549 (Lung)
[17] = Homo sapiens, T47D, drug resistant line
[18] = Homo sapiens, HBL-100; read-out: GI50 HBL-100 (Breast)
[19] = Homo sapiens, SW1573, Table S1, read-out: GI50 SW1573 (Lung)
[20] = with verapamil (concentration not stated), with verapamil, read-out: GI50 SW1573/PGP w Verapamil
[21] = without verapamil, read-out: GI50 SW1573/PGP w/o Verapamil
[22] = with verapamil, read-out: GI50 SW153 w Verapamil
[23] = without verapamil, read-out: GI50 SW1573 w/o Verapamil
[24] = read-out: GI50 HBL-100 (Breast)
[25] = Table S1, read-out: GI50 SW1573 (Lung)

Row | Compound | GI50 [1, 14] [µM] | GI50 [2, 15] [µM] | GI50 [3, 16] [µM] | GI50 [4, 17] [µM] | GI50 [5, 18] [µM] | GI50 [6, 19] [µM] | EC50 [7] [µM] | GI50 over the tumour cell lines (range, bound or words) [8] | % Scavenging of H2O2 [9] [%] | GI50 at 48 h [10, 20] [µM] | GI50 at 48 h [10, 21] [µM] | Rf w Verapamil [11] | Rf w/o Verapamil [11] | GI50 ([12]; Homo sapiens, Fibroblast) [µM] | GI50 [13, 22] [µM] | GI50 [13, 23] [µM] | also measured
1 | O=C(CCCSSCCCC(=O)NCCc1ccc(O)c(O)c1)NCCc1ccc(O)c(O)c1 [Compound 10] | > 100 | > 100 | > 100 | > 100 | > 100 | > 100 | 15.3 ± 0.1 | negligible activities | 11.8 ± 0.5 | – | – | – | – | – | – | – | –
2 | N#C[Se]CCc1ccc2c(c1)OCO2 [Compound 36, 2-(3′,4′-Methylendioxyphenyl)ethyl selenocyanate] | 1.2 ± 0.2 | 1.3 ± 0.6 | 1.8 ± 0.7 | 1.1 ± 0.3 | 2.1 ± 0.2 | 3.8 ± 0.1 | – | low micromolar‒submicromolar activities | – | 5.3 ± 0.6 | 6.8 ± 0.4 | 1.7 | 1.6 | 14 ± 2 | 3.1 ± 0.4 | 4.2 ± 0.7 | –
3 | c1cc2c(cc1CC[Se][Se]CCc1ccc3c(c1)OCO3)OCO2 [Compound 40, Bis[2-(3′,4′-methylenedioxyphenyl)ethyl]diselenide] | 0.95 ± 0.07 | 1.2 ± 0.1 | 1.6 ± 0.5 | 0.88 ± 0.17 | 2 ± 0.9 | 2.7 ± 0.3 | – | low micromolar‒submicromolar activities | – | 4.5 ± 1 | 3.9 ± 0.2 | 2.5 | 2.0 | 28 ± 5 | 1.8 ± 0.2 | 1.9 ± 0.1 | –
4 | N-[2′-(3′’,4′’-Dihydroxyphenyl)ethyl]-3-phenylselenopropanamide [Compound 18] | – | – | – | – | – | – | 23.2 ± 0.6 | moderate antiproliferative properties | 19.0 ± 0.8 | – | – | – | – | – | – | – | GI50 ([1]; read-out: GI50 HeLa (Cervix)): 23 ± 1 µM; GI50 ([2]; drug resistant line): 85 ± 21 µM; GI50 ([3]; read-out: GI50 A549 (Lung)): 33 ± 5 µM; GI50 ([4]; drug resistant line): 71 ± 5 µM; GI50 [5, 24]: 34 ± 1 µM; GI50 [6, 25]: 28 ± 4 µM
5 | N#C[Se]CCCc1ccc2c(c1)OCO2 [Compound 37, 3-(3’,4’-Methylenedioxyphenyl)propyl selenocyanate] | – | – | – | – | – | – | – | – | – | – | – | – | – | – | – | – | GI50 HeLa (Cervix) [1]: Not soluble; GI50 WiDr (Colon) ([2]; drug resistant line): Not soluble; GI50 A549 (Lung) [3]: Not soluble; GI50 T-47D (Breast) ([4]; drug resistant line): Not soluble; GI50 HBL-100 (Breast) [5]: Not soluble; GI50 BJ-hTert (Fibroblasts) [12]: Not soluble
6 | N#C[Se]CCC(=O)NCCc1ccc(O)c(O)c1 [Compound 20, N-[2′-(3′’,4′’-Dihydroxyphenyl)ethyl]-3-selenocyanatopropanamide] | – | – | – | – | – | – | 10.8 ± 0.4 | moderate antiproliferative properties | 25.8 ± 1.0 | – | – | – | – | – | – | – | GI50 ([1]; Homo sapiens, HeLa, read-out: GI50 HeLa (Cervix)): 19 ± 8 µM; GI50 ([2]; Homo sapiens, WiDr): 41 ± 10 µM; GI50 ([3]; Homo sapiens, A549, read-out: GI50 A549 (Lung)): 28 ± 8 µM; GI50 ([4]; Homo sapiens, T47D): 35 ± 1 µM; GI50 ([5]; Homo sapiens, HBL-100, read-out: GI50 HBL-100 (Breast)): 37 ± 2 µM; GI50 ([6]; Homo sapiens, SW1573, read-out: GI50 SW1573 (Lung)): 24 ± 8 µM
7 | O=C(CSSCC(=O)NCCc1ccc(O)c(O)c1)NCCc1ccc(O)c(O)c1 [Compound 8, 2,2′-Dithiobis{N-[2′’-(3′’’,4′’’-dihydroxyphenyl)ethyl]acetamide}] | > 100 | > 100 | > 100 | > 100 | > 100 | > 100 | 12.3 ± 0.5 | negligible activities | 26.5 ± 2.1 | – | – | – | – | – | – | – | –
8 | O=C(CCC[Se][Se]CCCC(=O)NCCc1ccc(O)c(O)c1)NCCc1ccc(O)c(O)c1 [Compound 16, 4,4′-Diselenobis{N-[2′’-(3′’’,4′’’-dihydroxyphenyl)ethyl]butanamide}] | 2.3 ± 0.4 | 3.9 ± 0.6 | 3.7 ± 0.6 | 5.8 ± 0.9 | 2.4 ± 0.6 | 3 ± 0.2 | 9.3 ± 1.3 | – | – | 5.1 ± 0.4 | 5.1 ± 0.6 | 2.2 | 1.9 | 3.5 ± 0.6 | 2.3 ± 0.3 | 2.7 ± 0.3 | GI50 [8]: < 6 µM
9 | [NH2][Pt]([NH2])([Cl])[Cl] [CDDP, cisplatin, reference compound] | – | – | – | – | – | – | – | – | – | – | – | – | – | – | – | – | GI50 ([1]; read-out: GI50 HeLa (Cervix)): 2 ± 0.3 µM; GI50 ([2]; drug resistant line): 26 ± 6 µM; GI50 ([3]; read-out: GI50 A549 (Lung)): 4.9 ± 0.2 µM; GI50 ([4]; drug resistant line): 15 ± 2 µM; GI50 [5, 24]: 1.9 ± 0.2 µM; GI50 [6, 25]: 3.4 ± 0.7 µM; GI50 [12]: 14 ± 2 µM
10 | N#C[Se]CCCC(=O)NCCc1ccc2c(c1)OCO2 [Compound 45, N-[2′-(3′,4′-Methylenedioxyphenyl)ethyl]-4-selenocyanatobutanamide] | 0.36 ± 0.09 | 0.41 ± 0.03 | 0.41 ± 0.03 | 0.4 ± 0.04 | 1.6 ± 0.3 | 0.81 ± 0.02 | – | – | – | 2.5 ± 0.1 | 3.3 ± 0.6 | 2.3 | 3.1 | 1.8 ± 0.7 | 1.1 ± 0.1 | 1.1 ± 0.2 | GI50 [8]: 0.36 to 1.6 µM
11 | N#C[Se]Cc1ccc2c(c1)OCO2 [Compound 35, (3′,4′-Methylenedioxyphenyl)methyl selenocyanate] | 3.5 ± 0.8 | 2 ± 0.1 | 3.1 ± 0.7 | 3.4 ± 0.2 | 3.5 ± 1.4 | 4.4 ± 0.5 | – | low micromolar‒submicromolar activities | – | 7 ± 0.6 | 7.1 ± 0.6 | 2.3 | 3.1 | 8.7 ± 3.2 | 3.1 ± 1 | 2.3 ± 0.5 | –
